# Measurements taken from EP0141884A1, “Novel phenylpiperazine derivatives, process for preparing them and therapeutic compositions containing them” (JUSTE, S.A. QUIMICO-FARMACEUTICA, priority 1983, dated 1985).
# System: female Swiss mice
# Experiment: Analgesic activity, writhing test (2-phenyl-1,4-benzoquinone as nociceptive agent)
# Type: in vivo
# Settings: Mus musculus, po, 1 h, Table 1, oral route one hour before i.p. 0.02% 2-phenyl 1-4 benzoquinone, dose reducing writhes by 50%
# Experimental: The studies of analgesic activity for these compounds have been carried out over 2,178 mice by using the "writhing test" method. 2-Phenylbenzoquinone was used as nociceptive agent and the material under test was administered by the oral route. In all the cases the ED50, ED16 and ED84 (minimum dose for each product which reduces the writhes by 50, 16 and 84% respectively) were calculated, as well as the 95% confidence limits for the ED50. The oral acute toxicity study (LD50 determination) has been performed using 770 Swiss mice (half males and half females) weighing 18-22 g.
# A slight modification of the method described by Hendershot and Forshait J. Pharmacol. Exp. Ther. 125, 237 (1959) which employs as nociceptive agent a 0.02% hydroalcoholic solution of 2-phenyl 1-4 benzoquinone, was used. 0.2 ml Of this solution was administered by the i.p. route at a constant temperature of 37° C. The administration of this substance produced in the animals abdominal writhes which were easy to count. The animals used were female Swiss mice of weight 20 + 2 g. […] The value of ED50 was calculated according to the method of Litchfield and Wilcoxon J. Pharmacol. Exp. Ther. 99, 96 (1949).
smiles,measurement,value
"CC(C)Cc1ccc(C(C)C(=O)O)cc1 (stereo not shown) [2(4-isobutylphenyl) propionic acid, reference compound]",ED50,4.21 mg/kg
